Measurements: patent publication US20210198277A1, “AMINE-SUBSTITUTED ARYL OR HETEROARYL COMPOUNDS” (Epizyme, Inc., priority 2016, published 2021)

Target: T1, EHMT1 (Homo sapiens, UniProt Q9H9B1)
T1 sequence (Q9H9B1 1-1298): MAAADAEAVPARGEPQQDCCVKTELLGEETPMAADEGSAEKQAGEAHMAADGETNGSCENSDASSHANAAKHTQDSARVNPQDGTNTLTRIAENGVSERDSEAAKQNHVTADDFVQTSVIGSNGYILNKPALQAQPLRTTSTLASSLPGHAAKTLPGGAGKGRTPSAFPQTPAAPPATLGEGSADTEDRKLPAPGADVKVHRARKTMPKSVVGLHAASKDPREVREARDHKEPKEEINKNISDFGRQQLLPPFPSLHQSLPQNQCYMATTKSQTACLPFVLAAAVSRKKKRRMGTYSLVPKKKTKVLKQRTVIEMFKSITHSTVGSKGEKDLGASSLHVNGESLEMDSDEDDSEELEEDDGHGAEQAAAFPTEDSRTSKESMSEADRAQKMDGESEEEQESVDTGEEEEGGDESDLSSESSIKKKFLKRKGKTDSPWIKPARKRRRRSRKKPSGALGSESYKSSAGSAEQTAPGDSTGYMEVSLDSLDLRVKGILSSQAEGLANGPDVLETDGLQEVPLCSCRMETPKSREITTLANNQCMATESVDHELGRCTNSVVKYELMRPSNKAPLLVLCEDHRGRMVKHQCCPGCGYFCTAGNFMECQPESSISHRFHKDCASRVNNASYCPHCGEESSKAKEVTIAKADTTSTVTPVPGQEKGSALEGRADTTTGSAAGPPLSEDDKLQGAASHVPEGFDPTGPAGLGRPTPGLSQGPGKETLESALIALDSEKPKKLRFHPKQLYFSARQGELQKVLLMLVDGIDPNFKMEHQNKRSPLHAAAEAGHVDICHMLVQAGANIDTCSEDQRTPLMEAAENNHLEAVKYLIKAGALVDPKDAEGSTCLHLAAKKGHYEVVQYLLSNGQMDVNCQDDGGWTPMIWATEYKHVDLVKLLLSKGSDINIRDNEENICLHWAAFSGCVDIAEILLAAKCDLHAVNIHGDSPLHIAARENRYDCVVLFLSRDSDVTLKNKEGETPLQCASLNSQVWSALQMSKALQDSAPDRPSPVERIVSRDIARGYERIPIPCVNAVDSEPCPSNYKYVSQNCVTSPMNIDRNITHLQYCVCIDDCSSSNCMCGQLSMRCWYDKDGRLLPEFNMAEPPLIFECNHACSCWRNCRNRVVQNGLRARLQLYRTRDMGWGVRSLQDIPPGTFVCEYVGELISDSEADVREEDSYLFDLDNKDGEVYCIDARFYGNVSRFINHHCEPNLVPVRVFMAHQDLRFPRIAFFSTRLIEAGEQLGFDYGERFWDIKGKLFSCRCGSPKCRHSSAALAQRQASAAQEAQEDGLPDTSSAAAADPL
Test: EHMT1 enzyme assay on peptide substrate (EHMT1 PEP)
Format: biochemical
Conditions: Table VI; read-out: EHMT1 PEP IC50

| Structure (SMILES) | IC50 [µM] |
| --- | --- |
| CCN1CC(COc2cc3nc(C)nc(C4CCN(C)CC4)c3cc2OC)C1 [Compound 664] | 1 to 10 |
| COc1cnc(Nc2cccc3nncn23)nc1OCCCN1CCCC1 [Compound 656] | > 10 |
| CCN1CC(NCc2cc(Nc3nc(C)cc(NC)n3)ccc2OC)C1 [Compound 647] | 1 to 10 |
| COc1cc2c(C3CCOCC3)cc(-c3cn[nH]c3)nc2cc1OCCCN1CCCC1 [Compound 679] | 1 to 10 |
| CC(C)N1CC(COc2cnc(NC3CCNCC3)nc2)C1 [Compound 636] | > 10 |
| CCN1CCC(N(C)Cc2cc(Nc3nc(C)cc(NC)n3)ccc2OC)C1 (stereo not drawn) [Compound 651] | 1 to 10 |
| CN1CCC(COc2cnc(N(C)C3CCNCC3)nc2)C1 (stereo not drawn) [Compound 633] | > 10 |
| COc1cc2c(C3CCCN(C)C3)nc(C)nc2cc1OCCCN1CCCC1 (stereo not drawn) [Compound 743] | 1 to 10 |
| CCN1CC[C@@H](COc2cc3nc(C)nc(C4CCN(C(C)C)CC4)c3cc2OC)C1 [Compound 674] | 1 to 10 |
| COc1cnc(Nc2cccc3nccn23)nc1OCCCN1CCCC1 [Compound 654] | > 10 |
| CNc1cc(C)nc(Nc2cnc(OC)c(O)c2)n1 [Compound 676] | > 10 |
| COc1cc(N(C)C2CCN(C)CC2)ncc1OCC1CCNC1 (stereo not drawn) [Compound 1042] | 1 to 10 |
| COc1cc(Nc2ccc3[nH]ncc3c2)ncc1OCCCN1CCCC1 [Compound 643] | > 10 |
| COc1cnc(Nc2cccc3[nH]ncc23)nc1OCCCN1CCCC1 [Compound 655] | > 10 |
| CCN1CC([C@@H](C)Oc2cc(Nc3nc(C)cc(NC)n3)ccc2OC)C1 [Compound 687] | 1 to 10 |
| CNc1nc(C)c2cc(OC)c(OCCCN3CCCC3)cc2n1 [Compound 737] | 1 to 10 |
| CCN1CC(N(C)Cc2cc(Nc3nc(C)cc(NC)n3)ccc2OC)C1 [Compound 650] | > 10 |
| COc1cc(N(C)C2CCNCC2)ncc1OCC1CCN(C)C1 (stereo not drawn) [Compound 635] | 1 to 10 |
| CCN1CC([C@H](C)Oc2cc(Nc3nc(C)cc(NC)n3)ccc2OC)C1 [Compound 649] | 0.1 to 1 |
| CCc1nc(NC2CCNCC2)ncc1OCC1CN(C(C)C)C1 [Compound 631] | > 10 |
| COc1cc(N(C)C2CCNCC2)ncc1OCC1CCNC1 (stereo not drawn) [Compound 1041] | 0.1 to 1 |
| COc1cnc(Nc2ccc3[nH]nnc3c2)cc1OCCCN1CCCC1 [Compound 686] | > 10 |
| CCN1CCC(NCc2cc(Nc3nc(C)cc(NC)n3)ccc2OC)C1 (stereo not drawn) [Compound 646] | 1 to 10 |
| CNc1nc(C2CCCN(C)C2)c2cc(OC)c(OCCCN3CCCC3)cc2n1 (stereo not drawn) [Compound 746] | 0.1 to 1 |

| Structure (SMILES) | IC50 [µM] |
| --- | --- |
| CCN1CC[C@@H](COc2cc3nc(C)nc(C4CCN(C)CC4)c3cc2OC)C1 [Compound 673] | 0.1 to 1 |
| COc1cc2c(C)nc(N3CCNCC3)nc2cc1OCCCN1CCCC1 [Compound 739] | > 10 |
| COc1cnc(Nc2cccn3cncc23)cc1OCCCN1CCCC1 [Compound 638] | > 10 |
| CC(C)N1CC[C@@H](COc2cnc(N(C)C3CCNCC3)nc2)C1 [Compound 637] | > 10 |
| CNc1ccnc(Nc2ccc(OC)c(CNC[C@@H]3CCCN3)c2)n1 [Compound 1019] | 0.1 to 1 |
| CNc1ccnc(Nc2ccc(OC)c(OCC[C@@H]3CCCN3)c2)n1 [Compound 1021] | 0.1 to 1 |
| COc1cc(N(C)C2CCNCC2)ncc1OCC1CCN(C)C1 (stereo not drawn) [Compound 634] | 0.1 to 1 |
| CNCCN(C)Cc1cc(Nc2nc(C)cc(NC)n2)ccc1OC [Compound 680] | 1 to 10 |
| CNCCNC(C)c1cc(Nc2nc(C)cc(NC)n2)ccc1OC (stereo not drawn) [Compound 1036] | 0.1 to 1 |
| COc1cc2c(C)cc(N3CCNCC3)nc2cc1OCCCN1CCCC1 [Compound 738] | 0.1 to 1 |
| CCN1CC(COc2cc3nc(C)nc(C4CCN(C(C)C)CC4)c3cc2OC)C1 [Compound 665] | 1 to 10 |
| COc1cc(NC2CCNCC2)ncc1OCC1CCN(C)C1 (stereo not drawn) [Compound 604] | 0.1 to 1 |
| CCc1nc(NC2CCNCC2)ncc1OCC1CCN(C)C1 (stereo not drawn) [Compound 630] | > 10 |
| COc1cc(Nc2ccc3[nH]ncc3n2)ncc1OCCCN1CCCC1 [Compound 648] | 1 to 10 |
| COc1cc2c(C3CCN(C)CC3)nc(-c3cn[nH]c3)nc2cc1OCCCN1CCCC1 [Compound 681] | 0.1 to 1 |
| CNc1ccnc(Nc2ccc(OC)c(CNC[C@H]3CCCN3)c2)n1 [Compound 1020] | 1 to 10 |
| CNCCNCc1cc(Nc2nccc(NC)n2)ccc1OC [Compound 1034] | 0.1 to 1 |
| COc1cc2c(C3CCOCC3)cc(C)nc2cc1OCCCN1CCCC1 [Compound 668] | 0.1 to 1 |
| CN1CCC(Nc2ncc(OCC3CCN(C)C3)cn2)CC1 (stereo not drawn) [Compound 632] | > 10 |
| CNc1cc(C)nc(Nc2ccc(OC)c(OC[C@@H]3CCN(C(C)C)C3)c2)n1 [Compound 1040] | 0.1 to 1 |
| COc1nc(NC2CCNCC2)ncc1OCC1CCN(C)C1 (stereo not drawn) [Compound 605] | > 10 |
| COc1cc2c(C3CCN(C)CC3)cc(C)nc2cc1OCCCN1CC[C@H](F)C1 [Compound 741] | 0.1 to 1 |
| COc1cc2c(C3CCN(C)CC3)cc(-c3cc[nH]n3)nc2cc1OCCCN1CCCC1 [Compound 678] | 0.1 to 1 |

Now from value to compound:

| IC50 [µM] | Structure (SMILES) |
| --- | --- |
| 0.1 to 1 | COc1cc2c(C3CCN(C)C3)nc(C)nc2cc1OCCCN1CCCC1 (stereo not drawn) [Compound 745] |
| < 0.1 | CNc1cc(C)nc(Nc2ccc(OC)c(CNCCN3CCCC3)c2)n1 [Compound 644, 2-N-[4-methoxy-3-([[2-(pyrrolidin-1-yl)ethyl]amino]methyl)phenyl]-4-N,6-dimethylpyrimidine-2,4-diamine] |
| < 0.1 | CNc1nc(C2CCN(CCOC)CC2)c2cc(OC)c(OCCCN3CCCC3)cc2n1 [Compound 740] |
| < 0.1 | CNc1cc(C)nc(Nc2ccc(OC)c(CNCCN3CC[C@@H](F)C3)c2)n1 [Compound 1030] |
| < 0.1 | COc1cc2c(C3CCN(C)CC3)cc(-c3cn[nH]c3)nc2cc1OCCCN1CCCC1 [Compound 677] |
| 0.1 to 1 | COc1cc2c(C3CCN(C(C)C)CC3)cc(C)nc2nc1OCCCN1CCCC1 [Compound 670] |
| < 0.1 | CCN1CC[C@@H](COc2cc(Nc3nc(C)cc(NCC4CCOCC4)n3)ccc2OC)C1 [Compound 667] |
| < 0.1 | CCc1cc(NC)nc(Nc2ccc(OC)c(OC[C@@H]3CCN(CC)C3)c2)n1 [Compound 671] |
| < 0.1 | CNc1cc(C)c2cc(OC)c(OCCCN3CCCC3)cc2n1 [Compound 736] |
| < 0.1 | CNc1cc(C)nc(Nc2ccc(OC)c(OC[C@H](O)CN3CCC3)c2)n1 [Compound 1038, (2R)-1-(azetidin-1-yl)-3-(2-methoxy-5-[[4-methyl-6-(methylamino)pyrimidin-2-yl]amino]phenoxy)propan-2-ol] |
| 0.1 to 1 | CNCCNCc1cc(Nc2nccc(NC)n2)cnc1OC [Compound 1035] |
| 0.1 to 1 | CNc1ccnc(Nc2ccc(OC)c(OCC[C@H]3CCCN3)c2)n1 [Compound 1022] |
| 0.1 to 1 | COc1cc2c(C3CCN(C)CC3)nc(C)nc2cc1OCCCN1CCCC1 [Compound 658] |
| < 0.1 | COCCN1CCC(c2cc(C)nc3cc(OCCCN4CCCC4)c(OC)cc23)CC1 [Compound 682] |
| 0.1 to 1 | CNCC(C)NCc1cc(Nc2nc(C)cc(NC)n2)ccc1OC (stereo not drawn) [Compound 1037] |
| < 0.1 | CCN1CC(COc2cc3nc(C)cc(C4CCN(C)CC4)c3cc2OC)C1 [Compound 660] |
| < 0.1 | COc1cc2c(C3CCN(C)CC3)c(F)c(C)nc2cc1OCCCN1CCCC1 [Compound 652] |
| < 0.1 | CNc1cc(C)c2cc(OC)c(OC[C@H](O)CN3CCC3)cc2n1 [Compound 1028] |
| < 0.1 | CNc1ccnc(Nc2ccc(OC)c(CNCCN3CCC3)c2)n1 [Compound 1033] |
| < 0.1 | CNc1cc(C)nc(Nc2cnc(OC)c(CNCCN3CCCC3)c2)n1 [Compound 1031] |
| < 0.1 | COc1cc2c(C3CCN(C)CC3)cc(C)nc2cc1OCCCN1CC[C@@H](F)C1 [Compound 742] |
| < 0.1 | CCN1CC(COc2cc3nc(C)cc(C4CCN(C(C)C)CC4)c3cc2OC)C1 [Compound 661] |
| < 0.1 | CNc1ccnc(Nc2ccc(OC)c(CNCCN3CCCC3)c2)n1 [Compound 1032] |
| < 0.1 | CCN1CC(COc2cc(Nc3nc(C)cc4[nH]ncc34)ncc2OC)C1 [Compound 607] |
| < 0.1 | CCN1CC[C@@H](COc2cc3nc(C)cc(C4CCN(C)CC4)c3cc2OC)C1 [Compound 662] |
